What was measured:
[1] = test system: Tobacco Calli cells transformed with the Hygromycin B phosphotransferase gene; assay: LD 50 for resistant cells; conditions: for LD 50 for different impurities for resistant cells: isolated impurities added to media
Fungi cell = assay: LD 50 hygromycin B concentration for sensitive cells; format: cell-based
[2] = test system: 293 cells transformed with the Hygromycin B phosphotransferase gene; assay: LD 50 for resistant cells; conditions: resistant 293 cells; for LD 50 for different impurities for resistant cells: isolated impurities added to media
Tobacco Calli cells = assay: LD 50 hygromycin B concentration for sensitive cells; format: cell-based
resistant cells = conditions: comparison between batches / impurities
293 cell = assay: LD 50 hygromycin B concentration for sensitive cells; format: cell-based; conditions: sensitive 293 cell
Escherichia Coli = assay: as above; format: cell-based

Molecule	LD 50 hygromycin B concentration for resistant cells ([1]; hygromycin B batches) [µg/mL]	LD 50 hygromycin B concentration for sensitive cells (Fungi cell) [µg/mL]	LD 50 hygromycin B concentration for resistant cells ([2]; hygromycin B batches) [µg/mL]	LD 50 hygromycin B concentration for sensitive cells (Tobacco Calli cells) [µg/mL]	toxicity to resistant cells (in words) (resistant cells)	LD 50 hygromycin B concentration for sensitive cells (293 cell) [µg/mL]	LD 50 hygromycin B concentration for sensitive cells (Escherichia Coli) [µg/mL]	LD 50 for different impurities for resistant cells [1] [µg/mL]	LD 50 for different impurities for resistant cells [2] [µg/mL]
CN[C@H]1C[C@@H](N)[C@H](O)[C@@H](O[C@@H]2O[C@H](CO)[C@H](O)[C@@H]3OC4(O[C@H]23)O[C@H]([C@@H](N)CO)[C@H](O)[C@H](O)[C@H]4O)[C@@H]1O (some centres unmarked) [Batch T-94, hygromycin B]	490	14.2	394	4.7	lower toxicity to resistant cells	8.5	8.2	–	–
NC1CC(N)C(O)C(OCC(O)C(O)C(O)C(O)CO)C1O (centres unmarked) [Impurity D]	–	–	–	–	–	–	–	0.5	1.7
Destomic acid [Impurity A]	–	–	–	–	–	–	–	193	240

Source: patent US20120231448A1, “LOW CELL TOXICITY […]” (priority 2011, published 2012)
